Experimental data taken from patent US5476661A, “Compositions for topical application to skin, hair and nails” (Elizabeth Arden Co., Division of Conopco, Inc., priority 1994, dated 1995).
Entries after “also recorded” stand apart in the source; their conditions may differ. Read-outs that look alike come from different tables or passages of the source.

Assays:
keratinocytes [1] = conditions: cited from earlier work
[2] = tested on: normal human keratinocytes; assay: DNA synthesis rate (3H-thymidine incorporation) in normal human keratinocytes; assay type: cell-based
Excerpt: Initiation of differentiation of keratinocytes is accompanied by inhibition of their growth. The rate of synthesis of DNA determined by the incorporation of radiolabeled substrate [^3 H] thymidine, is an indicator of the rate of growth of the cells. A decrease in DNA synthesis therefore indicates decrease in growth and increase in differentiation of keratinocytes.
Methodology Used for Determining the Rate of DNA Synthesis in Keratinocytes After Treatment With Various Actives
1. Normal human keratinocytes isolated from neonatal foreskins by trypsin treatment were grown in DME medium/10% fetal calf serum in the presence of irradiated 3T3 mouse fibroblasts for establishing dividing keratinocyte colonies. Keratinocytes were grown under the above condition until their third passage.
2. For the experiments, third passage keratinocytes were plated into a serum-free keratinocyte growth medium (KGM; obtained from Clonetics Corporation, San Diego, Calif.) containing 0.15 mM calcium. 20,000 to 30,000 cells were plated into each well of 24 well cell culture plates and grown for 5 days, until the cells reach about 80% confluence.
3. Medium was changed to fresh medium and the various test materials were added to the medium from an ethanolic stock solution (10 A.M.). The final ethanol concentration in the cultures was kept below 0.2%. Control cultures received no tested material but were dosed with 0.2% ethanol. Each compound or combination was tested in three separate wells. By 4 P.M., 1 uCi of ^3 H-thymidine (AmerSham Corp., Sp activity 40 Ci/mmol) was added to the 1 ml medium in each well. The cells were incubated overnight and 24 hours later (10 A.M. next day) the amount of ^3 H-thymidine associated with the cellular DNA of keratinocytes was assessed as described below.
4. The medium was aspirated, and the wells washed with 1 ml phosphate-buffered saline. The DNA and proteins of the cells in the plate were then precipitated by adding 1 ml of ice-cold 10% trichloroacetic acid (TCA). The plates were left on ice for 30 minutes to complete the precipitation process. TCA was then aspirated and each well was then washed four times with 5% TCA. The plates were then dried on a filter pad and the cells in the wells were dissolved in 0.5 ml of 0.1N sodium hydroxide. The sodium hydroxide was then neutralized using 0.1N hydrochloric acid and the solution (1 ml total volume) was then transferred to a scintillation vial. 100 ul samples from each vial were used for protein assay using BCA protein assay reagent obtained from Pierce Chemical Company. 8 ml of a scintillation fluid (Ecolume) was added to the rest of the solution in the vial, and the vials were counted in a scintillation counter to determine the amount of radioactivity in each vial. The DNA synthesis rate was then calculated as cpm ^3 H thymidine incorporated into total cellular DNA/microgram of cell protein for each individual well. Mean and standard deviation for each group was also calculated.
5. All lipids listed in Tables 1-5 below were synthesized in-house. 25-OH-D3 and 1,25-(OH)2 D3 were obtained from Hoffman La Roche. Vitamin D3 was obtained from Sigma.

[3] = cited from earlier work
[4] = tested on: normal human keratinocytes; assay: Vitamin D3 metabolites' uptake by keratinocytes (cell associated radioactivity); assay type: in vitro ADME; conditions: for Uptake by keratinocytes, cell associated radioactivity: 60 picomolar, mean of duplicate; for uptake rate by keratinocytes / skin cells: Table 6 summary
Procedure: Normal human keratinocytes were grown to confluence in Keratinocyte growth medium (KGM) containing 0.15 mM calcium. Medium was changed to fresh medium. The cells were then incubated in duplicate with 10,000 cpm (60 picomolar, or 25 picogram/ml medium) of 25-OH-D3 or 1,25-(OH)2 D3 for various times (0 to 240 minutes). At different time intervals indicated in the Table below, the medium of appropriate wells were aspirated, and the wells were washed three times with a 0.2% bovine serum albumin solution in 50 mM Tris/0.15M sodium chloride buffer pH 7.4. After the wash the cells in the wells were dissolved in 0.1N sodium hydroxide, neutralized with 0.1N hydrochloric acid, mixed with 5 ml of scintillation fluid (Ecolume) and counted in a beta counter. The amount of cpm associated with the cells was calculated as the percent of total cpm added for each time point studied. Data in the table is expressed as cell associated radioactivity as % of total added. Each reported result is a mean of duplicate determinations.

keratinocytes [5] = conditions: Bikle et al., cited from earlier work; for conversion in skin / keratinocytes: MacLaughlin et al.
[6] = tested on: HL-60 cells (human myelocytic leukemia cells); conditions: cited from earlier work
[7] = Homo sapiens, Keratinocyte, Table 5, 3 μM lipid, 0 nM 25-OH-D3, * = statistically significant growth inhibition

In the case of `C=C1/C(=C\C=C2/CCC[C@]3(C)[C@@H]([C@H](C)CCCC(C)(C)O)CC[C@@H]23)C[C@@H](O)C[C@@H]1O` [1,25-(OH)2 D3, 1,25-dihydroxycholecalciferol], the “effect on DNA synthesis and differentiation of keratinocytes” value (keratinocytes [1]; exogenous or endogenous, Pillai et al., Hashimoto et al.) is given as “inhibits DNA synthesis (i.e., inhibits growth) and induces differentiation of keratinocytes”, the activity at 0.001 µM ([2]; Homo sapiens, Keratinocyte, read-out: DNA synthesis of keratinocytes, Table 1, compound alone, 1 nM, Test 1) is given as 115 ± 7.7% and the activity at 0.01 µM ([2]; Homo sapiens, Keratinocyte, read-out: DNA synthesis of keratinocytes, Table 1, compound alone, 10 nM, Test 1) is given as 108 ± 8.7%. It also gave an activity at 0.01 µM ([2]; Homo sapiens, Keratinocyte, read-out: DNA synthesis of keratinocytes, Table 1, compound alone, 10 nM, Test 2) of 91.9 ± 5.3%, an activity at 0.01 µM ([2]; Homo sapiens, Keratinocyte, read-out: DNA synthesis of keratinocytes, Table 1, compound alone, 10 nM, Test 3) of 91.8 ± 4.5% and an activity at 0.1 µM ([2]; Homo sapiens, Keratinocyte, read-out: DNA synthesis of keratinocytes, Table 1, compound alone, 100 nM, Test 1, * = statistically significant growth inhibition) of 102 ± 16.7%. It also gave an activity at 0.1 µM ([2]; Homo sapiens, Keratinocyte, read-out: DNA synthesis of keratinocytes, Table 1, compound alone, 100 nM, Test 2, * = statistically significant growth inhibition) of 86 ± 7.7%, an activity at 0.1 µM ([2]; Homo sapiens, Keratinocyte, read-out: DNA synthesis of keratinocytes, Table 1, compound alone, 100 nM, Test 3) of 90.3 ± 9.5% and an activity at 1 µM ([2]; Homo sapiens, Keratinocyte, read-out: DNA synthesis of keratinocytes, Table 1, compound alone, 1000 nM, Test 1, * = statistically significant growth inhibition) of 71.5 ± 2.9%. It also gave an activity at 1 µM ([2]; Homo sapiens, Keratinocyte, read-out: DNA synthesis of keratinocytes, Table 1, compound alone, 1000 nM, Test 2, * = statistically significant growth inhibition) of 56.3 ± 14.1%, an activity at 0.01 µM ([2]; Homo sapiens, Keratinocyte, read-out: DNA synthesis of keratinocytes, Table 4, 10 nM vitamin D3 or metabolite, no ceramide) of 91.8 ± 4.6% and an activity at 0.1 µM ([2]; Homo sapiens, Keratinocyte, read-out: DNA synthesis of keratinocytes, Table 4, 100 nM vitamin D3 or metabolite, no ceramide) of 90.3 ± 9.5%. The minimal effective concentration ([2]; Homo sapiens, Keratinocyte, read-out: concentration at which statistically significant cell growth inhibition was consistently observed) was 1 µM, the “toxicity of higher blood levels” value ([3]; higher levels of 1,25-(OH)2 D3 in blood) was “increase blood calcium levels and may cause heart problems, muscle weakness and contraction which may be fatal” and the “blood level after topical application” value ([3]; in vivo) was “increases blood level of 1,25-(OH)2 D3”. For the same compound, the “Uptake by keratinocytes, cell associated radioactivity” value (from here on “Uptake by keratinocytes”) ([4]; 0 minutes) was 0.8 % of total added, the “Uptake by keratinocytes” value ([4]; 2 minutes) was 2.7 % of total added and the “Uptake by keratinocytes” value ([4]; 5 minutes) was 4.2 % of total added. For the same compound, the “Uptake by keratinocytes” value ([4]; 10 minutes) was 13.0 % of total added, the “Uptake by keratinocytes” value ([4]; 15 minutes) was 10.0 % of total added and the “Uptake by keratinocytes” value ([4]; 30 minutes) was 20.0 % of total added. The “Uptake by keratinocytes” value ([4]; 60 minutes) was 15.6 % of total added, the “Uptake by keratinocytes” value ([4]; 120 minutes) was 26.2 % of total added and the “Uptake by keratinocytes” value ([4]; 240 minutes) was 30.8 % of total added. The “uptake rate by keratinocytes / skin cells” value [4] was “rapidly taken up”, the “catabolism to inactive metabolites by keratinocytes” value (keratinocytes [5]) was “catabolized to inactive metabolites rapidly” and the “degradation within skin cells” value (keratinocytes [5]; exogenously added) was “rapidly degraded within the skin cells”.
Compound `CCCCCCCCCCCCC/C=C/C(O)C(CO)NC(C)=O` (stereo not drawn) [Ceramide (Formula A)] has an activity at 0.3 µM ([2]; Homo sapiens, Keratinocyte, Table 2, ceramide alone, 0.3 μM, Test 3) of 146 ± 21%, an activity at 1 µM ([2]; Homo sapiens, Keratinocyte, Table 2, ceramide alone, 1.0 μM, Test 1, read-out: DNA synthesis of keratinocytes) of 115 ± 11% and an activity at 1 µM ([2]; Homo sapiens, Keratinocyte, Table 2, ceramide alone, 1.0 μM, Test 2, read-out: DNA synthesis of keratinocytes) of 83.1 ± 6%. For the same compound, the activity at 3 µM ([2]; Homo sapiens, Keratinocyte, Table 2, ceramide alone, 3.0 μM, Test 3) was 112 ± 13%, the activity at 10 µM ([2]; Homo sapiens, Keratinocyte, Table 2, ceramide alone, Test 1) was 105 ± 22.4% and the activity at 10 µM ([2]; Homo sapiens, Keratinocyte, Table 2, ceramide alone, Test 2, * = statistically significant growth inhibition) was 69.9 ± 10%. The activity at 10 µM ([2]; Homo sapiens, Keratinocyte, Table 2, ceramide alone, Test 3, * = statistically significant growth inhibition) was 66 ± 14%, the activity at 3 µM ([2]; Homo sapiens, Keratinocyte, Table 4, 3.0 μM ceramide, 0 vitamin D3 or metabolite (ethanol vehicle only)) was 87.9 ± 0.8% and the activity at 3 µM [2, 7] was 88 ± 0.8%. The minimal effective concentration ([2]; Homo sapiens, Keratinocyte, Table 2 summary, only at the highest concentration, 2 out of 3 experiments, read-out: concentration at which statistically significant growth inhibition occurred) was 10 µM.
With `C=C1CC[C@H](O)C/C1=C/C=C1\CCC[C@]2(C)[C@@H]([C@H](C)CCCC(C)(C)O)CC[C@@H]12` [Formula 25-OH--D3, 25-hydroxycholecalciferol] the activity at 0.01 µM ([2]; Homo sapiens, Keratinocyte, Table 1, compound alone, 10 nM, Test 2, read-out: DNA synthesis of keratinocytes) was 86.5 ± 9%, the activity at 0.01 µM ([2]; Homo sapiens, Keratinocyte, Table 1, compound alone, 10 nM, Test 3, read-out: DNA synthesis of keratinocytes) was 95.2 ± 6.8% and the activity at 0.1 µM ([2]; Homo sapiens, Keratinocyte, Table 1, compound alone, 100 nM, Test 1, * = statistically significant growth inhibition, read-out: DNA synthesis of keratinocytes) was 86.5 ± 5.4%. The activity at 0.1 µM ([2]; Homo sapiens, Keratinocyte, Table 1, compound alone, 100 nM, Test 2, * = statistically significant growth inhibition, read-out: DNA synthesis of keratinocytes) was 79.1 ± 2.6%, the activity at 1 µM ([2]; Homo sapiens, Keratinocyte, Table 1, compound alone, 1000 nM, Test 2, * = statistically significant growth inhibition, read-out: DNA synthesis of keratinocytes) was 78.9 ± 5.4% and the activity at 0.001 µM ([2]; Homo sapiens, Keratinocyte, Table 3, 25-OH-D3 alone, 1 nM (second line), read-out: DNA synthesis of keratinocytes) was 99.3 ± 1.91%. It also gave an activity at 0.01 µM ([2]; Homo sapiens, Keratinocyte, Table 3, 25-OH-D3 alone, 10 nM, read-out: DNA synthesis of keratinocytes) of 97.2 ± 5.92%, an activity at 0.1 µM ([2]; Homo sapiens, Keratinocyte, Table 3, 25-OH-D3 alone, 100 nM, read-out: DNA synthesis of keratinocytes) of 86.5 ± 5.47% and an activity at 1 µM ([2]; Homo sapiens, Keratinocyte, Table 3, 25-OH-D3 alone, 1000 nM, read-out: DNA synthesis of keratinocytes) of 67.8 ± 5.92%. The activity at 0.001 µM ([2]; Homo sapiens, Keratinocyte, Table 3, 25-OH-D3 alone, first line, concentration printed as 1 nM, read-out: DNA synthesis of keratinocytes) was 100 ± 4.71%, the activity at 0.1 µM ([2]; Homo sapiens, Keratinocyte, Table 5, 100 nM 25-OH-D3, no ceramide, read-out: DNA synthesis of keratinocytes) was 88.5 ± 7.2% and the minimal effective concentration ([2]; Homo sapiens, Keratinocyte, read-out: concentration at which statistically significant cell growth inhibition was consistently observed, Table 1 summary, compound alone, only at this concentration) was 1 µM. For the same compound, the “Uptake by keratinocytes” value ([4]; 0 minutes) was 2.5 % of total added, the “Uptake by keratinocytes” value ([4]; 2 minutes) was 3.2 % of total added and the “Uptake by keratinocytes” value ([4]; 5 minutes) was 0.3 % of total added. For the same compound, the “Uptake by keratinocytes” value ([4]; 10 minutes) was 3.4 % of total added, the “Uptake by keratinocytes” value ([4]; 15 minutes) was 8.3 % of total added and the “Uptake by keratinocytes” value ([4]; 30 minutes) was 8.1 % of total added. For the same compound, the “Uptake by keratinocytes” value ([4]; 60 minutes) was 6.2 % of total added, the “Uptake by keratinocytes” value ([4]; 120 minutes) was 6.8 % of total added and the “Uptake by keratinocytes” value ([4]; 240 minutes) was 9.8 % of total added. The “uptake rate by keratinocytes / skin cells” value [4] was “slower uptake; also recorded: taken up by keratinocytes at a substantially slower rate than 1,25-(OH)2 D3” and the “conversion in skin / keratinocytes” value (keratinocytes [5]) was “converted to 1,25-(OH)2 D3 in keratinocyte cultures”.
Compound `CCCCCCCCCCCCCCC(O)CN(CCO)C(C)=O` (stereo not drawn) [pseudoceramide (Formula C)] has an activity at 3 µM [2, 7] of 51.4 ± 4%.
For `CC1=C(/C=C/C(C)=C/C=C/C(C)=C/C(=O)O)C(C)(C)CCC1` [retinoic acid], the keratinocyte differentiation (keratinocytes [1]) is given as “prevents differentiation of keratinocytes” and the HL-60 cell differentiation [6] is given as “induces differentiation of HL-60 cells”.
In the case of `C=C1CC[C@H](O)C/C1=C/C=C1\CCC[C@]2(C)[C@@H]([C@H](C)CCCC(C)C)CC[C@@H]12` [vitamin D3], the keratinocyte prodifferentiating activity (keratinocytes [1]; applied topically to skin, MacLaughlin et al.) is given as “neither has keratinocyte prodifferentiating activity”, the “statistically significant growth inhibition” value ([2]; Table 4 summary, vitamin D3 alone) is given as “does not show statistically significant growth inhibition” and the “conversion in skin / keratinocytes” value (keratinocytes [5]) is given as “nor is it converted in the skin to 25-OH-D3 derivative”.
